Measured values: patent US20140322708A1, “METHOD FOR MEASURING SOMATIC DNA […]” (Albert Einstein College of Medicine of Yeshiva University, priority 2011, published 2014)
Values joined by “and” are separate entries in the source; they are usually repeats but may differ in a detail not shown here. Identical values can stand only once.

Key:
[1] = test system: S2 cells; experiment: Reduced representation paired-end sequencing assay for genome rearrangements in bleomycin-treated cells; type: cell-based, Drosophila melanogaster; conditions: bleomycin-treated S2 cells as compared to untreated cells
Description: Genomic DNA from cultured mouse (embryonic fibroblasts; MEFs) and fly (Drosophila melanogaster embryo cell line; S2) cells was analyzed by paired-end (“PE”) sequencing after a restriction enzyme digestion (HindIII for mouse and PstI for fly) and size selection. The fly and mouse genomes are structured very differently, with the mouse genome consisting of close to 50% repetitive DNA and the fly genome only 3%. The libraries were sequenced using a paired-end kit on the Illumina® Genome Analyzer fix with a read length of 85 bp. […] Alterations in the distance between two PE reads relative to the distance predicted by the RefSeq indicate putative genome rearrangements. […] First, any read pairs that had mapping quality scores lower than 30 (e.g. see Li H, Ruan J, Durbin R. (2008) Mapping short DNA sequencing reads and calling variants using mapping quality scores. Genome Research 18:1851-1858, hereby incorporated by reference in its entirety, for mapping scores) were filtered out. This removed repeat-spanning reads with ambiguous placement on the reference genome. […]
It was reasoned that treatment of S2 cells with a clastogen should give rise to elevated frequencies of genome rearrangements. […] The frequencies of genome rearrangements were expressed per read pair. […]

[2] = test system: S2 cells; experiment: Single cell whole genome sequencing for somatic point mutations after ENU treatment; type: cell-based, Drosophila melanogaster
Description: To assess somatic mutation spectra in single cells in a genome-wide manner S2 cells derived from Drosophila melanogaster, an organism with a genome size of 160 MB, were used. The strategy followed is outlined in FIG. 1B. Individual single cells were picked from an S2 cell culture 72-h after treatment with 4.2 mM of the powerful point mutagen N-ethyl-N-nitrosourea (ENU) or mock treated with solvent (control). At 72-h post-treatment virtually no lesions remain (6,7) and cell survival is greater than 90% (8) (results not shown). Each single cell was lysed and subjected to whole genome amplification (WGA) using an optimized multiple displacement amplification (MDA) protocol (see Methods and Materials)(9). The amplified cells were first screened for locus dropout by qPCR using primer pairs distributed over the different chromosomes (FIG. 5). DNA from the cells displaying the least amount of dropout was fragmented and processed to generate sequencing libraries for the Illumina HiSeq platform. In this way libraries of three untreated and three ENU-treated cells were prepared. For comparison, a similar library was made from unamplified total genomic DNA from the untreated S2 cell population. To identify all possible mutations, either spontaneously formed in the unexposed, control cells or induced by ENU in the treated cells, the libraries were sequenced from both ends, generating between 50-100 million 108-bp paired-end reads per cell. Alignment to the Drosophila reference sequence (dm3) was performed using BWA (10), and post-processing was completed using the Genome Analysis Toolkit (GATK) (11). […] Since ENU is a point mutagen the subsequent analysis was based on this type of mutations only. The pipeline developed for somatic point mutation discovery is described in further detail in the Methods and Materials section. Briefly, aligned sequence data from the unamplified sample and a single cell was compared and all differences with the reference sequence were recorded as variants. Variants with sufficient coverage (20×) in both the unamplified and the single cell sample were classified as “germline” or “somatic” based on whether the variant was shared between the two samples. Somatic variants were further processed using a strand-bias filter and were visually validated using the Integrative Genomics Viewer (IGV) (12).
Single cells were collected under an inverted microscope by hand-held capillaries, deposited in PCR tubes along with 2 μl of culture medium, and immediately frozen on dry ice. […] The reaction products were purified using AMPure XP magnetic beads (Agencourt, Beverly, Mass.) and the reaction yield was measured using the NanoDrop 1000 spectrophotometer (Nanodrop Technologies LLC, Wilmington, Del.). […]

[3] = test system: mouse embryonic fibroblast (MEF); experiment: Single cell reduced representation (MseI) sequencing for somatic point mutations after ENU treatment; type: cell-based
Description: Therefore, the procedure shown in FIG. 1B was slightly modified, using a reduced representation approach based on restriction enzyme digestion. For this purpose mouse embryonic fibroblast (MEF) populations were used either treated with 4.2 mM ENU or mock-treated with solvent only. Instead of preparing sequencing libraries directly using randomly fragmented DNA, whole genome amplified DNA was digested from two treated and two control MEFs, as well as unamplified genomic DNA from the MEF population, with MseI, a four-base cutter with a TTAA cleavage site. Following digestion an agarose gel size-selection was performed for fragments between 250-bp and 350-bp, corresponding to a target region of approximately 300 MB. The fragments were sequenced using 121-bp single-end reads. […] Due to the nature of the reduced representation library, the strand bias filter could not be used and therefore a more stringent mutant read frequency cutoff (>40%) was adopted. Out of the 300-MB target region, 220 MB (73%) had sufficient coverage (10×) in the unamplified control sample and 85-93 MB (39-42%) of the 220 MB overlapped with regions of sufficient coverage in the single MEFs. Due to the absence of a sufficient number of heterozygous SNPs in the MEF cell line, allele dropout was estimated using the distribution of mutant read frequencies found in the ENU-treated MEF cells.
Single cells were collected under an inverted microscope by hand-held capillaries, deposited in PCR tubes along with 2 μl of culture medium, and immediately frozen on dry ice. Cells were lysed and amplified using the REPLI-g UltraFast Mini kit (Qiagen, Santa Clara, Calif.) according to the manufacturer's instructions, but using an initial 30-min amplification at 30° C. followed by an 18-hour amplification at 35° C. The reaction products were purified using AMPure XP magnetic beads (Agencourt, Beverly, Mass.) and the reaction yield was measured using the NanoDrop 1000 spectrophotometer (Nanodrop Technologies LLC, Wilmington, Del.). Reactions with yield of greater than 1 μg were tested for locus dropout at eight loci using comparative Ct measurements from real-time PCR (StepOne Plus, Applied Biosystems, Foster City, Calif.) performed with Fast SYBR® Green Master Mix (Foster City, Calif.). Up to 5 μg of DNA from samples displaying the least biased amplification was used as input for Illumina libraries. DNA was either randomly fragmented (S2 cells) or digested (MEFs) with 50 U of Msei (NEB, Ipswich, Mass.). Digested DNA (MEFs) was end-repaired using Mung Bean Nuclease (NEB, Ipswich, Mass.) and then used as input for the Illumina library preparation. S2 libraries were size-selected to 475-525-bp and MEF libraries were size selected to 250-350-bp using agarose gel electrophoresis. […] The aligned sequence data was processed using genome analysis toolkit (GATK) (e.g., available at www.broadinstitute.org) to realign reads containing indels or a high entropy of mismatches, recalibrate the base quality scores, and to compute coverage data and statistics. Somatic point mutations and germline variation were scored using a pipeline composed of SAMtools mpileup command (e.g., available at samtools.sourceforge.net/mpileup.shtml), VarScan somatic command (e.g., available at varscan.sourceforge.net/somatic-calling.html) and a custom script to parse and filter the VarScan output. Somatic events found in multiple single cells were discarded, as were events found in at least one read in the unamplified control sample. […]

[4] = test system: S2 cells; experiment: Cell survival after ENU treatment; type: cell-based, Drosophila melanogaster; conditions: 72-h post-treatment, 4.2 mM ENU
Description: To assess somatic mutation spectra in single cells in a genome-wide manner S2 cells derived from Drosophila melanogaster, an organism with a genome size of 160 MB, were used. The strategy followed is outlined in FIG. 1B. Individual single cells were picked from an S2 cell culture 72-h after treatment with 4.2 mM of the powerful point mutagen N-ethyl-N-nitrosourea (ENU) or mock treated with solvent (control). At 72-h post-treatment virtually no lesions remain (6,7) and cell survival is greater than 90% (8) (results not shown). Each single cell was lysed and subjected to whole genome amplification (WGA) using an optimized multiple displacement amplification (MDA) protocol (see Methods and Materials)(9). The amplified cells were first screened for locus dropout by qPCR using primer pairs distributed over the different chromosomes (FIG. 5). […] To identify all possible mutations, either spontaneously formed in the unexposed, control cells or induced by ENU in the treated cells, the libraries were sequenced from both ends, generating between 50-100 million 108-bp paired-end reads per cell. […] Briefly, aligned sequence data from the unamplified sample and a single cell was compared and all differences with the reference sequence were recorded as variants. […]

[5] = single S2 cell, 72-h after treatment with 4.2 mM ENU
[6] = single MEF, treated with 4.2 mM ENU

| Compound | increase in genomic mutation frequency (genome rearrangements per read pair) [1] | majority of the ENU-induced mutations (mutation spectrum) ([2]; S2 cells) | induction of point mutations ([2]; on average in the exposed S2 cells vs control cells) | Mutations per Mb [2, 5] | Point mutations [2, 5] | induction of point mutations ([3]; ENU-treated MEF cells vs control MEFs) | majority of the ENU-induced mutations (mutation spectrum) ([3]; MEF cells) | ENU-induced mutation frequency in MEF cells, higher than that found in the S2 cells ([3]; mutations per MB, MEF vs S2) | Mutations per Mb [3, 6] | Point mutations [3, 6] | cell survival [4] |
| --- | --- | --- | --- | --- | --- | --- | --- | --- | --- | --- | --- |
| bleomycin | approximately 3 fold | – | – | – | – | – | – | – | – | – | – |
| CCN(N=O)C(N)=O [ENU, N-ethyl-N-nitrosourea] | – | T->A, T->C and G->A mutations | 7.5 fold | 3.27 and 2.54 and 3.18 | 938 and 482 and 690 | 35 fold | T->A, T->C and G->A mutations | 30% | 3.97 and 3.91 | 426 and 446 | greater than 90% |
